These compounds were tested against T1, Dihydrofolate reductase (Candida glabrata (strain ATCC 2001 / BCRC 20586 / JCM 3761 / NBRC 0622 / NRRL Y-65 / CBS 138), UniProt Q6FPH0) (assay: Enzyme Inhibition Assay). Settings: 25 °C.
T1 sequence (Q6FPH0 whole entry): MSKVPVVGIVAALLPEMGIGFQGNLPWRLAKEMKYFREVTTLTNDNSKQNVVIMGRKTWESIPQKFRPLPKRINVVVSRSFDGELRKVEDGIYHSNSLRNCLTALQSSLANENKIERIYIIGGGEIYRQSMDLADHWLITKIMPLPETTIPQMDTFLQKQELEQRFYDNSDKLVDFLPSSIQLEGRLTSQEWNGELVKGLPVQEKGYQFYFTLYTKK
Source text: Enzyme inhibition assay using CgDHFR and hDHFR performed at 25 degree Celsius by monitoring the rate of enzyme-dependent NADPH oxidation at an absorbance of 340 nm over several minutes.
`CCc1nc(N)nc(N)c1C#CCc1cc(OC)ccc1OC` [5-[3-(2,5-dimethoxyphenyl)prop-1-yn-1-yl]-6-ethylpyrimidine-2,4-diamine] gave an IC50 of 8.2 nM.
`COc1ccc(OC)c(CC#Cc2cnc(N)nc2N)c1` [5-[3-(2,5-dimethoxyphenyl)prop-1-yn-1-yl]pyrimidine-2,4-diamine] showed an IC50 of 21 nM.
Work on `COc1cc(CC#Cc2cnc(N)nc2N)cc(OC)c1OC` [JMC517532 Compound 3] yielded an IC50 of 22 nM.
For `COc1cc([C@@H](C#Cc2c(C)nc(N)nc2N)OC)cc(OC)c1OC` [JMC517532 Compound 10], the IC50 was 30 nM.
With `COc1ccc(OC)c(CC#Cc2c(C)nc(N)nc2N)c1` [Propargyl-linked, 10] the IC50 was 32 nM.
In the case of `COc1cc(C(C)C#Cc2c(C)nc(N)nc2N)cc(OC)c1OC` (configuration not stated) [Propargyl-substituted antifolate, 8], the IC50 is reported as 25 nM.
`COc1cc([C@@H](O)C#Cc2c(C)nc(N)nc2N)cc(OC)c1OC` [Propargyl-substituted antifolate, 9] was tested, and the IC50 was 39 nM.

— BindingDB's records for doi:10.1016/j.chembiol.2008.07.013 (University of Connecticut, 2008)
